Measured values published in BindingDB's records for patent US12264155 (Repare Therapeutics, 2025).
pIC50: −log10 of the molar value.

Biological target: Serine/threonine-protein kinase ATR (Homo sapiens, UniProt Q13535)
Experiment: ATR/ATRIP Enzymatic Assay
Source text: Detection of ATR kinase activity utilized the AlphaScreen system to measure the phosphorylation of the substrate protein p53.

Serine/threonine-protein kinase ATR, sequence (Q13535 whole entry): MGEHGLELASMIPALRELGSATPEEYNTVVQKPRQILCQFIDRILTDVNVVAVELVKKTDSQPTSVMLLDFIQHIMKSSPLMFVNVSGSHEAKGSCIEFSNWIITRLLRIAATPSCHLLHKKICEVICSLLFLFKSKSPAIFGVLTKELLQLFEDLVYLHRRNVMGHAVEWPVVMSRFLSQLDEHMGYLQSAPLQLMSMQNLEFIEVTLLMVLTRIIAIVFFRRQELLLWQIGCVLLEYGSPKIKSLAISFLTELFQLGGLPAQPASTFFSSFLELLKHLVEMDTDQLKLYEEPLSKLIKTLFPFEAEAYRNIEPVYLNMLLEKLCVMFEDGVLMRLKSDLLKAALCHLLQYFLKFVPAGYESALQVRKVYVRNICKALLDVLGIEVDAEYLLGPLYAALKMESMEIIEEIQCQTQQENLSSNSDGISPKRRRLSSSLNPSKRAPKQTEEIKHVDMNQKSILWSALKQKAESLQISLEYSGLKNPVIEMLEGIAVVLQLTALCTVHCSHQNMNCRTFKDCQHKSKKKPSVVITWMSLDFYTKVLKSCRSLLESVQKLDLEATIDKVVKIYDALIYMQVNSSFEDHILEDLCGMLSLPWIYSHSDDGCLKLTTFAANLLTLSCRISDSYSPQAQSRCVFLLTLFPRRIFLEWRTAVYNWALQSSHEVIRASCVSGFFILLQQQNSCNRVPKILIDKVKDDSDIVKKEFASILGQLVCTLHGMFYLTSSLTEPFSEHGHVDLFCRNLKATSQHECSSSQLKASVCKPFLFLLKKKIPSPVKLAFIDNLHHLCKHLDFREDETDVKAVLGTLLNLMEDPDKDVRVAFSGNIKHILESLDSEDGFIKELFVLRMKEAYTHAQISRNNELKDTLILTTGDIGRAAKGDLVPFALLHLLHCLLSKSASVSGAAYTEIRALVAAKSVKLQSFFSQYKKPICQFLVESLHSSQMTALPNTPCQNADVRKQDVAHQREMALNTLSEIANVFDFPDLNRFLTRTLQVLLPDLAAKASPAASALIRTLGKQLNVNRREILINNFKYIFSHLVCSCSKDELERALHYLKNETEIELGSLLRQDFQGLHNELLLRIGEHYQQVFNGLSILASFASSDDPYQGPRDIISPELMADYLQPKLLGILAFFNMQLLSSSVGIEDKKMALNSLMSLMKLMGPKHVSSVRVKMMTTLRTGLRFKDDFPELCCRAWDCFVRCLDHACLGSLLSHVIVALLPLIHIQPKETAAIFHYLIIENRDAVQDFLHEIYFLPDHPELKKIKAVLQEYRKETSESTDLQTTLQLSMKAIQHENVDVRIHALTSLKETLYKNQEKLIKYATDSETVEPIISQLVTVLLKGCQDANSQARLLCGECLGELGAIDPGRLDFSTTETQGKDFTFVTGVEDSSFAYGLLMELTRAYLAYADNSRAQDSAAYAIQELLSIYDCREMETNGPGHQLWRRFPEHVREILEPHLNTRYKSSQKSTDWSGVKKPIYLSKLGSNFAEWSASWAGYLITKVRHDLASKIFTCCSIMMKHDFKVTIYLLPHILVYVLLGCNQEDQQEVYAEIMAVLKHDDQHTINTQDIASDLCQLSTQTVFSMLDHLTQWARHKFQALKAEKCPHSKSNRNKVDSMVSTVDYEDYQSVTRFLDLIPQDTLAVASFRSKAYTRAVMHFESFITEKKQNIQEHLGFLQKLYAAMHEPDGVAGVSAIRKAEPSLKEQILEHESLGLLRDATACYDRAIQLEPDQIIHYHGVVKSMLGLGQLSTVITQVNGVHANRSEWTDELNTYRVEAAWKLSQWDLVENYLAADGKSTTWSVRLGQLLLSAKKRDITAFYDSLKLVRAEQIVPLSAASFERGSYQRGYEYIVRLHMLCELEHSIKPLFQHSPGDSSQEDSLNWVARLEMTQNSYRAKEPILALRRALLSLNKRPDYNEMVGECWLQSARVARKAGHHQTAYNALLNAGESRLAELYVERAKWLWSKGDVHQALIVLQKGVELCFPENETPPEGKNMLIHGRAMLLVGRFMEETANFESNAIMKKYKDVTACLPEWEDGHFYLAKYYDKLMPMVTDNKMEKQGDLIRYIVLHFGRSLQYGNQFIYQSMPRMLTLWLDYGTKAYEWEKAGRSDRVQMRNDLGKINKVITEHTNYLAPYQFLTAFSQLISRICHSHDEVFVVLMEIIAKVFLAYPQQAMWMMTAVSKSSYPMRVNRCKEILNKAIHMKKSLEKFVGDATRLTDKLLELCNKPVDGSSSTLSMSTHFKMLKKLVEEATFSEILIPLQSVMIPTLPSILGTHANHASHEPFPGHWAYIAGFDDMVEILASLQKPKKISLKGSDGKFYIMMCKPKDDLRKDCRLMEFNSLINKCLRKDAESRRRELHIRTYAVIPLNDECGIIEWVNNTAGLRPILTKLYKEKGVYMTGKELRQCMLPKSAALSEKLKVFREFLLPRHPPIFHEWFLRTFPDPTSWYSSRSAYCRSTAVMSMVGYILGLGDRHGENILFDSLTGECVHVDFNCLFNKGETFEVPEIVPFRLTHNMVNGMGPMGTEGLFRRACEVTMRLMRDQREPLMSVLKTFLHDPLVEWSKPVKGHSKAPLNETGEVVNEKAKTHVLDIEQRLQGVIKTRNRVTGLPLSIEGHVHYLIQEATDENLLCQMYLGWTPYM

Row | pIC50 | Structure (SMILES)
1 | 8.22 | C[C@@H]1COCCN1c1cc(C2(O)CCC3(CCC3)CC2)c2cnn(-c3cc[nH]n3)c2n1 [US12264155, Compound 58]
2 | 7.89 | C[C@@H]1COCCN1c1cc(OCC(F)(F)F)c2cnn(-c3cc[nH]n3)c2n1 [US12264155, Compound 55]
3 | 6.07 | C[C@@H]1COCCN1c1cc(N2CCOC2=O)c2ccn(-c3cc[nH]n3)c2n1 [US12264155, Compound 26]
4 | > 8.30 | C[C@@H]1COCCN1c1cc(C(C)(C)C#N)c2c(Br)nn(-c3cc[nH]n3)c2n1 [US12264155, Compound 70]
